Data: patent publication US7101849B1 (The University of Queensland, priority 1998, dated 2006)

Biological target: N-type calcium channel (Rattus norvegicus, UniProt Q02294)
Type: binding

Chain of N-type calcium channel (Q02294 whole entry, looked up): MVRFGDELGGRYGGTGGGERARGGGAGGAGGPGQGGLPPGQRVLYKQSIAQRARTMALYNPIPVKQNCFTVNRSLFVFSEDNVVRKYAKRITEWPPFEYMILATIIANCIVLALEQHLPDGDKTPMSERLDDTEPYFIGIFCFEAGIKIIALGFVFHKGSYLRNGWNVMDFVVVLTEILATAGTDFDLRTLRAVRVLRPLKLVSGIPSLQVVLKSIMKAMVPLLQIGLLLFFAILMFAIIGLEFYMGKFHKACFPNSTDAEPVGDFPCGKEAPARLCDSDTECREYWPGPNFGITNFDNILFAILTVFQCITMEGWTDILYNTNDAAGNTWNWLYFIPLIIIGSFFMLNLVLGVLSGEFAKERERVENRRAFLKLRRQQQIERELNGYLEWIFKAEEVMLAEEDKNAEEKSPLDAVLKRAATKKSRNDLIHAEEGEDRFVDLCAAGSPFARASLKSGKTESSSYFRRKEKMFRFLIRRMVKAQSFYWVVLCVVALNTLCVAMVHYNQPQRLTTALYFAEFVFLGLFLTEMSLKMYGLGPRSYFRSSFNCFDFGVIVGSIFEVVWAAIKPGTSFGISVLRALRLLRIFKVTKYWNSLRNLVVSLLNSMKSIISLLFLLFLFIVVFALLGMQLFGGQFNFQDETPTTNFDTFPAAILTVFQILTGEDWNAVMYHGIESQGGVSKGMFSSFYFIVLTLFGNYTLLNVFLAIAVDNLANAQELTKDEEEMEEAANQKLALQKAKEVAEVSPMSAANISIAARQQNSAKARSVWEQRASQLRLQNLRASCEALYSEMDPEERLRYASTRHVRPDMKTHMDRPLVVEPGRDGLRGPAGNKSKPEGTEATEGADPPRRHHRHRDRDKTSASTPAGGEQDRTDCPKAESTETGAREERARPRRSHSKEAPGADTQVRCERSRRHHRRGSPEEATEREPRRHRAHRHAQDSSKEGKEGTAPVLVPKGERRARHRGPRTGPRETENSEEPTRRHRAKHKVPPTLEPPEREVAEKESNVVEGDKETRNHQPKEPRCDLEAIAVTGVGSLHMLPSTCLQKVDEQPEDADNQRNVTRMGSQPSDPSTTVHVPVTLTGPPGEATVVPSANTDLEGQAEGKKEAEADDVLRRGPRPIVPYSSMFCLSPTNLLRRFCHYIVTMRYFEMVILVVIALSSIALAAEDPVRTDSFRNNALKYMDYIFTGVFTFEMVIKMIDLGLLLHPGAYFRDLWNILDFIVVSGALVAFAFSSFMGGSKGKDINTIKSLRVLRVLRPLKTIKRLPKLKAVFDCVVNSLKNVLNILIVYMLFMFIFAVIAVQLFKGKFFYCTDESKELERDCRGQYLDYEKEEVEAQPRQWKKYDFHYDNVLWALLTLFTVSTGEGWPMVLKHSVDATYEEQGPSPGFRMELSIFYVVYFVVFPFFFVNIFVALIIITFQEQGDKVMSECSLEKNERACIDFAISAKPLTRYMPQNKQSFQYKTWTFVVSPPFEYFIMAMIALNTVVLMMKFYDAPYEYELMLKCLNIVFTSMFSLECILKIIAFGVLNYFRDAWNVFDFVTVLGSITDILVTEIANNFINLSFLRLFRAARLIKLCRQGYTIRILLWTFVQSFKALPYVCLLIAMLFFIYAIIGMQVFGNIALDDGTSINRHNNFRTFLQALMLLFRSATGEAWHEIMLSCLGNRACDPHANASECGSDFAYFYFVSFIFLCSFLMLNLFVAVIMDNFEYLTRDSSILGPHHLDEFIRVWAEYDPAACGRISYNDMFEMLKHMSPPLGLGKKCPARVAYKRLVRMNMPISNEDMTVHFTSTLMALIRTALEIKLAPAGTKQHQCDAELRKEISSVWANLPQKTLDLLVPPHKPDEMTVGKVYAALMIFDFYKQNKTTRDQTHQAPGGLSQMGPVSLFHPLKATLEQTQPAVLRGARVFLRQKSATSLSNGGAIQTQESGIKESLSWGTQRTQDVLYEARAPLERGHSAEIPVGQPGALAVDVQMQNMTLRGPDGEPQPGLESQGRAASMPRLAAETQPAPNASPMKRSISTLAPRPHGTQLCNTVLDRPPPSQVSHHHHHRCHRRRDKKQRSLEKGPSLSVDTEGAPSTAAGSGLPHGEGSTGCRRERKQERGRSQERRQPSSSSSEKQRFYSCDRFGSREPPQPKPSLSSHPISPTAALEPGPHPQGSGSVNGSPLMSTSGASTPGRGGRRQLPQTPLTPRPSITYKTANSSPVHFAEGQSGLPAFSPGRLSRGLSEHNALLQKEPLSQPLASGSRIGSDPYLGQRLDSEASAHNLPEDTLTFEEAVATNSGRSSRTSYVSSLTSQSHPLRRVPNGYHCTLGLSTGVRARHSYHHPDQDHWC

Sequence: CKSKGAKCDRLMYDCCSGSCSGTVGRC [D^9R^10-CVID]
- potency for N-type calcium channel in receptor binding assays: high potency
- selectivity for N-type calcium channel over P/Q-type calcium channel in receptor binding assays: high selectivity
